Data as given in patent US11161837B2, “Benzofuran derivatives for the treatment of hepatitis C” (BRISTOL-MYERS SQUIBB COMPANY, priority 2016, dated 2021).

Tests used:
[1] = system: genotype 1b (Con-1) HCV replicon in Huh-7 cells; assay: HCV replicon luciferase assay; assay type: cell-based; details: 1b replicon, Huh-7, Renilla luciferase, 3 days incubation
How it was run: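 Huh-7 cells carrying Con-1 genotype 1b replicon with Renilla luciferase reporter seeded onto titrated compound in DMEM, 4% FBS, 0.5% DMSO, 3 days at 37 °C. Luciferase read with EnduRen substrate (7.5 μM final) after ≥1 h; EC50 by four-parameter logistic fit.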

[2] = target: T1, NS5B proteins of HCV genotype 1b (Con1) (Hepatitis C virus genotype 1b, UniProt Q9WMX2); assay: HCV NS5B RdRp enzyme assay; assay type: biochemical; details: 1b enzyme
T1 construct: Each untagged protein was expressed with an 18 amino acid C-terminal truncation to enhance the solubility; made in house; host or cells: E. coli BL21(DE3), pET21a
T1 sequence (Q9WMX2 2420-2992): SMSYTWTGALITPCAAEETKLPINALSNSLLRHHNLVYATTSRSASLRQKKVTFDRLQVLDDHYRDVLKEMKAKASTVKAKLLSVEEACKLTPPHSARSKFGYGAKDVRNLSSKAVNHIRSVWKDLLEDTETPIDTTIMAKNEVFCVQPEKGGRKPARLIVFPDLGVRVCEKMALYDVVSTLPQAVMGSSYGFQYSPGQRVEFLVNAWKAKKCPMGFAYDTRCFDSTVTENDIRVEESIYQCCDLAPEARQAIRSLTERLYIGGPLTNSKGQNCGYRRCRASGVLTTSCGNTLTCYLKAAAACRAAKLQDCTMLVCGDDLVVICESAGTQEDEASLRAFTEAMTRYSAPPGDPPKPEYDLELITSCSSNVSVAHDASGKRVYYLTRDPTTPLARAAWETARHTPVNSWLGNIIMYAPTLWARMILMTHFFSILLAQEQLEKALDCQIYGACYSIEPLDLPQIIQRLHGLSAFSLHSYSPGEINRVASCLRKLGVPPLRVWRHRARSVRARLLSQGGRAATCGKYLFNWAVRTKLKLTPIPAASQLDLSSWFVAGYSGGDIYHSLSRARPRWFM
Procedure: HCVNS5B RdRp Cloning, Expression, and Purification.
The cDNA encoding NS5B proteins of HCV genotype 1b (Con1), a genotype 1b variant with amino acid 316 mutated from cysteine to asparagine, and genotype 2a (JFH-1), were cloned into the pET21a expression vector. Each untagged protein was expressed with an 18 amino acid C-terminal truncation to enhance the solubility. The E. coli competent cell line BL21(DE3) was used for expression of the protein. Cultures were grown at 37° C. for ˜4 hours until the cultures reached an optical density of 2.0 at 600 nm. The cultures were cooled to 20° C. and induced with 1 mM IPTG. Fresh ampicillin was added to a final concentration of 50 μg/mL and the cells were grown overnight at 20° C.
Cell pellets (3 L) were lysed for purification to yield 15-24 mgs of purified NS5B. The lysis buffer consisted of 20 mM Tris-HCl, pH 7.4, 500 mM NaCl, 0.5% triton X-100, 1 mM DTT, 1 mM EDTA, 20% glycerol, 0.5 mg/mL lysozyme, 10 mM MgCl2, 15 ug/mL deoxyribonuclease I, and Complete TM protease inhibitor tablets (Roche). After addition of the lysis buffer, frozen cell pellets were resuspended using a tissue homogenizer. To reduce the viscosity of the sample, aliquots of the lysate were sonicated on ice using a microtip attached to a Branson sonicator. The sonicated lysate was centrifuged at 100,000×g for 30 minutes at 4° C. and filtered through a 0.2 μm filter unit (Corning).
The protein was purified using two sequential chromatography steps: Heparin sepharose CL-6B and polyU sepharose 4B. The chromatography buffers were identical to the lysis buffer but contained no lysozyme, deoxyribonuclease I, MgCl2 or protease inhibitor and the NaCl concentration of the buffer was adjusted according to the requirements for charging the protein onto the column. Each column was eluted with a NaCl gradient which varied in length from 5-50 column volumes depending on the column type. After the final chromatography step, the resulting purity of the enzyme is >90% based on SDS-PAGE analysis. The enzyme was aliquoted and stored at −80° C.
HCVNS5B RdRp Enzyme Assay.
An on-bead solid phase homogeneous assay was used in a 384-well format to assess NS5B inhibitors (WangY-K, Rigat K, Roberts S, and Gao M (2006) Anal Biochem, 359: 106-111). The biotinylated oligo dT12 primer was captured on streptavidin-coupled imaging beads (GE, RPNQ0261) by mixing primer and beads in 1× buffer and incubating at room temperature for three hours. Unbound primer was removed after centrifugation. The primer-bound beads were resuspended in 3× reaction mix (20 mM Hepes buffer, pH 7.5, dT primer coupled beads, poly A template, ^3H-UTP, and RNAse inhibitor (Promega N2515)). Compounds were serially diluted 1:3 in DMSO and aliquoted into assay plates. Equal volumes (10 μL) of water, 3× reaction mix, and enzyme in 3× assay buffer (60 mM Hepes buffer, pH 7.5, 7.5 mM MgCl2, 7.5 mM KCl, 3 mM DTT, 0.03 mg/mL BSA, 6% glycerol) were added to the diluted compound on the assay plate. Final concentration of components in 384-well assay: 0.36 nM template, 15 nM primer, 0.29 μM ^3H-UTP (0.3 μCi), 1.6 U/μL RNAse inhibitor, 7 nM NS5B enzyme, 0.01 mg/mL BSA, 1 mM DTT, and 0.33 μg/μL beads, 20 mM Hepes buffer, pH 7.5, 2.5 mM MgCl2, 2.5 mM KCl, and 0.1% DMSO.
Reactions were allowed to proceed from 4 to 24 hours at 30° C. For 24 hour reactions, enzyme and inhibitors were pre-incubated for 24 hours before adding template and primer. Reactions were terminated by the addition of 50 mM EDTA (10 μL). After incubating for at least 15 minutes, plates were read on an Amersham LEADseeker multimodality imaging system.
IC50 values for compounds were determined using ten different [I]. IC50 values were calculated from the inhibition using the four-parameter logistic formula y=A+((B−A)/(1+((C/x)^D))), where A and B denote minimal and maximal % inhibition, respectively, C is the IC50, D is hill slope and x represents compound concentration.

| Compound | EC50 ([1]; Hepatitis C virus, Huh-7, 72 h) [nM] | IC50 [2] [nM] | EC50 [1] [nM] |
| --- | --- | --- | --- |
| CNC(=O)c1c(-c2ccc(F)cc2)oc2ccc(-c3cc(C(=O)NC4(c5ncccn5)CC(F)C4)c(OC)cc3C)c(F)c12 (centres unmarked) [Example 19, 4-Fluoro-5-(5-(3-fluoro-1-(pyrimidin-2-yl)cyclobutylcarbamoyl)-4-methoxy-2-methylphenyl)-2-(4-fluorophenyl)-N-methylbenzofuran-3-carboxamide] | 5.26 | 120 |  |
| CNC(=O)c1c(-c2ccc(F)cc2)oc2cc(CCC(F)(F)F)c(-c3cccc(C(=O)NC4(c5ncccn5)CC(OC(F)(F)F)C4)c3)cc12 (single isomer, unassigned) [Example 45b, 2-(4-Fluorophenyl)-N-methyl-5-(3-((1-(pyrimidin-2-yl)-3-(trifluoromethoxy)cyclobutyl)carbamoyl)phenyl)-6-(3,3,3-trifluoropropyl)benzofuran-3-carboxamide] |  | 10 | 9.46 |
| CNC(=O)c1c(-c2ccc(F)cc2)oc2ccc(-c3cc(C(=O)NC4(c5ncccn5)CC(=O)C4)ccc3C)c(F)c12 [Example 6, 4-Fluoro-2-(4-fluorophenyl)-N-methyl-5-(2-methyl-5-((3-oxo-1-(pyrimidin-2-yl)cyclobutyl)carbamoyl)phenyl)benzofuran-3-carboxamide] | 20 | 10 |  |
| CNC(=O)c1c(-c2ccc(F)cc2)oc2ccc(-c3cc(C(=O)NC4(c5ncccn5)CC(OC)(OC)C4)c(OC)cc3C)c(F)c12 [Example 14, 5-(5-((3,3-Dimethoxy-1-(pyrimidin-2-yl)cyclobutyl)carbamoyl)-4-methoxy-2-methylphenyl)-4-fluoro-2-(4-fluorophenyl)-N-methylbenzofuran-3-carboxamide] | 20 | 30 |  |
| CNC(=O)c1c(-c2ccc(F)cc2)oc2ccc(-c3cc(C(=O)NC4(c5ncccn5)CC(OC)C4)c(OC)cc3C)c(F)c12 (single isomer, unassigned) [Example 13a, 4-Fluoro-2-(4-fluorophenyl)-5-(4-methoxy-5-((3-methoxy-1-(pyrimidin-2-yl)cyclobutyl)carbamoyl)-2-methylphenyl)-N-methylbenzofuran-3-carboxamide] |  | 30 | 30 |
| CNC(=O)c1c(-c2ccc(F)cc2)oc2cc(CCC(F)(F)F)c(-c3ccc(OC)c(C(=O)NC4(c5ncccn5)CC(OC(F)(F)F)C4)c3)cc12 (single isomer, unassigned) [Example 47b, 2-(4-Fluorophenyl)-5-(4-methoxy-3-((1-(pyrimidin-2-yl)-3-(trifluoromethoxy)cyclobutyl)carbamoyl)phenyl)-N-methyl-6-(3,3,3-trifluoropropyl)benzofuran-3-carboxamide] |  | 10 | 10 |
| CNC(=O)c1c(-c2ccc(F)cc2)oc2cc(CCC(F)(F)F)c(-c3ccc(OC)c(C(=O)NC4(c5ncccn5)CC(OC(F)(F)F)C4)c3)cc12 (single isomer, unassigned) [Example 47a, 2-(4-Fluorophenyl)-5-(4-methoxy-3-((1-(pyrimidin-2-yl)-3-(trifluoromethoxy)cyclobutyl)carbamoyl)phenyl)-N-methyl-6-(3,3,3-trifluoropropyl)benzofuran-3-carboxamide] | 10 | 20 |  |
| CNC(=O)c1c(-c2ccc(F)cc2)oc2cc(CCC(F)(F)F)c(-c3ccc(OC)c(C(=O)NC4(c5ncccn5)CC(OC(F)F)C4)c3)cc12 (centres unmarked) [Example 43, 5-(3-((3-(Difluoromethoxy)-1-(pyrimidin-2-yl)cyclobutyl)carbamoyl)-4-methoxyphenyl)-2-(4-fluorophenyl)-N-methyl-6-(3,3,3-trifluoropropyl)benzofuran-3-carboxamide] | 5.6 | 10 |  |
| CCN(c1cc2oc(-c3ccc(F)cc3)c(C(=O)NC)c2cc1-c1cccc(C(=O)NC2(c3ncccn3)CC(F)C2)c1)S(C)(=O)=O (centres unmarked) [Example 25, 6-(N-ethylmethylsulfonamido)-5-(3-((3-fluoro-1-(pyrimidin-2-yl)cyclobutyl)carbamoyl)phenyl)-2-(4-fluorophenyl)-N-methylbenzofuran-3-carboxamide] | 5.29 | 1.37 |  |
| CNC(=O)c1c(-c2ccc(F)cc2)oc2cc(CCC(F)(F)F)c(-c3ccc(F)c(C(=O)NC4(c5ncccn5)CC(OC(F)F)C4)c3)cc12 (centres unmarked) [Example 42, 5-(3-((3-(Difluoromethoxy)-1-(pyrimidin-2-yl)cyclobutyl)carbamoyl)-4-fluorophenyl)-2-(4-fluorophenyl)-N-methyl-6-(3,3,3-trifluoropropyl)benzofuran-3-carboxamide] | 5.73 | 7.6 |  |
| CCOc1cc2oc(-c3ccc(F)cc3)c(C(=O)NC)c2cc1-c1ccc(OC)c(C(=O)NC2(c3ncccn3)CC(OC(F)F)C2)c1 (single isomer, unassigned) [Example 66b, 5-(3-((3-(Difluoromethoxy)-1-(pyrimidin-2-yl)cyclobutyl)carbamoyl)-4-methoxyphenyl)-6-ethoxy-2-(4-fluorophenyl)-N-methylbenzofuran-3-carboxamide] |  | 2.02 | 4.39 |
| CNC(=O)c1c(-c2ccc(F)cc2)oc2cc(NCC(F)(F)F)c(-c3ccc(OC)c(C(=O)NC4(c5ncccn5)CC(OC(F)F)C4)c3)cc12 (single isomer, unassigned) [Example 64b] |  | 3.97 | 5.97 |
| CNC(=O)c1c(-c2ccc(F)cc2)oc2cc(NCC(F)(F)F)c(-c3cccc(C(=O)NC4(c5ncccn5)CC(OC(F)F)C4)c3)cc12 (single isomer, unassigned) [Example 65a] |  | 4.55 | 8.72 |
| CCCc1cc2oc(-c3ccc(F)cc3)c(C(=O)NC)c2cc1-c1cc(C(=O)NC2(C)CC(OC(F)F)C2)c(OC)cc1C (single isomer, unassigned) [Example 57a, 5-(5-((3-(Difluoromethoxy)-1-methylcyclobutyl)carbamoyl)-4-methoxy-2-methylphenyl)-2-(4-fluorophenyl)-N-methyl-6-propylbenzofuran-3-carboxamide] | 50 | 10 |  |
| CNC(=O)c1c(-c2ccc(F)cc2)oc2cc(CCC(F)(F)F)c(-c3ccc(F)c(C(=O)NC4(C)CC(OC(F)F)C4)c3)cc12 (single isomer, unassigned) [Example 63b, 5-(3-((3-(Difluoromethoxy)-1-methylcyclobutyl)carbamoyl)-4-fluorophenyl)-2-(4-fluorophenyl)-N-methyl-6-(3,3,3-trifluoropropyl)benzofuran-3-carboxamide] |  | 3.03 | 10 |
| CNC(=O)c1c(-c2ccc(F)cc2)oc2cc(CCC(F)(F)F)c(-c3ccc(F)c(C(=O)NC4(c5ncccn5)CC(OC(F)(F)F)C4)c3)cc12 (single isomer, unassigned) [Example 49b, 5-(4-Fluoro-3-((1-(pyrimidin-2-yl)-3-(trifluoromethoxy)cyclobutyl)carbamoyl)phenyl)-2-(4-fluorophenyl)-N-methyl-6-(3,3,3-trifluoropropyl)benzofuran-3-carboxamide] |  | 10 | 20 |
